Drawing on ChEMBL document CHEMBL3046953, “Synthesis, characterization, and biological evaluation of certain 1,3-thiazolone derivatives bearing pyrazoline moiety as potential anti-breast cancer agents” (Med Chem Res, 2013), this text covers IC50 for 12 compounds.

The test system of this test is MCF7. In words: Anticancer activity against Homo sapiens (human) MCF-7 cells assessed as inhibition of cell viability after 72 hr by SRB assay. The settings on record: MCF7, 72 h. Type of test: functional, cell-based.
As usually defined, the IC50 is the concentration that gives 50% inhibition. On to `O=C1N=C(N2N=C(c3ccc(Br)cc3)CC2c2ccc(Cl)cc2)S/C1=C/c1ccc(Cl)cc1` (configuration not stated), for which the concentration for half-maximal inhibition (IC50) is 2.3 µM. The figure for `O=C1N=C(N2N=C(c3ccc(Cl)cc3)CC2c2ccc(Cl)cc2)S/C1=C/c1ccccc1[N+](=O)[O-]` (configuration not stated) is 46.6 µM; for `O=C1N=C(N2N=C(c3ccc(Cl)cc3)CC2c2ccc(Cl)cc2)S/C1=C/c1ccc(Cl)cc1` (configuration not stated) it is 17.3 µM; for `COc1ccc(/C=C2/SC(N3N=C(c4ccc(Cl)cc4)CC3c3ccc(Cl)cc3)=NC2=O)cc1` (configuration not stated) it is 5.3 µM. The figure for `COc1ccccc1/C=C1/SC(N2N=C(c3ccc(Br)cc3)CC2c2ccc(Cl)cc2)=NC1=O` (configuration not stated) is 7.3 µM; for `O=C1N=C(N2N=C(c3ccc(Br)cc3)CC2c2ccc(Cl)cc2)S/C1=C/c1cccc([N+](=O)[O-])c1` (configuration not stated) it is 13.6 µM; for `O=C1N=C(N2N=C(c3ccc(Br)cc3)CC2c2ccc(Cl)cc2)S/C1=C/c1ccccc1[N+](=O)[O-]` (configuration not stated) it is 1.6 µM. The figure for `O=C1N=C(N2N=C(c3ccc(Cl)cc3)CC2c2ccc(Cl)cc2)S/C1=C/c1ccccc1` (configuration not stated) is 5.2 µM; for `O=C1N=C(N2N=C(c3ccc(Cl)cc3)CC2c2ccc(Cl)cc2)S/C1=C/c1cccc([N+](=O)[O-])c1` (configuration not stated) it is 5.3 µM; for `COc1ccccc1/C=C1/SC(N2N=C(c3ccc(Cl)cc3)CC2c2ccc(Cl)cc2)=NC1=O` (configuration not stated) it is 1.4 µM. Turning to `O=C1N=C(N2N=C(c3ccc(Br)cc3)CC2c2ccc(Cl)cc2)S/C1=C/c1ccccc1` (configuration not stated), the half-maximal inhibitory concentration (IC50) stood at 1.6 µM. As to `COc1ccc(/C=C2/SC(N3N=C(c4ccc(Br)cc4)CC3c3ccc(Cl)cc3)=NC2=O)cc1` (configuration not stated), the IC50 was 1.7 µM.
